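Results reflect a 48-hour exposure of cells in 96-well plates to compound at five concentrations. Definition used: TGI = concentration required for complete inhibition of growth.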
Tests used:
Test in all cases: NCI tumour cell line growth inhibition, 48 h
786-0 renal = test system: 786-0 renal
NCI-H23 lung = test system: NCI-H23 lung
OVCAR-5 ovarian = test system: OVCAR-5 ovarian
CAKI-1 renal = test system: CAKI-1 renal
HT29 colon = test system: HT29 colon
LOX IMVI melanoma = test system: LOX IMVI melanoma
EKVX NSCLC = test system: EKVX NSCLC
CCRF-CEM leukemia = test system: CCRF-CEM leukemia
RXF 393 renal = test system: RXF 393 renal
MDA-MB-435 = test system: MDA-MB-435
UACC-62 melanoma = test system: UACC-62 melanoma
HS 578T breast = test system: HS 578T breast
MDA-MB-231 breast = test system: MDA-MB-231 breast
IGROV1 ovarian = test system: IGROV1 ovarian
SNB-19 CNS = test system: SNB-19 CNS
SK-OV-3 ovarian = test system: SK-OV-3 ovarian
OVCAR-8 ovarian = test system: OVCAR-8 ovarian
MCF7 breast = test system: MCF7 breast
MALME-3M melanoma = test system: MALME-3M melanoma

| Compound | TGI (786-0 renal) [µM] | TGI (NCI-H23 lung) [µM] | TGI (OVCAR-5 ovarian) [µM] | TGI (CAKI-1 renal) [µM] | TGI (HT29 colon) [µM] | TGI (LOX IMVI melanoma) [µM] | TGI (EKVX NSCLC) [µM] | TGI (CCRF-CEM leukemia) [µM] | TGI (RXF 393 renal) [µM] | TGI (MDA-MB-435) [µM] | TGI (UACC-62 melanoma) [µM] | TGI (HS 578T breast) [µM] | TGI (MDA-MB-231 breast) [µM] | TGI (IGROV1 ovarian) [µM] | TGI (SNB-19 CNS) [µM] | TGI (SK-OV-3 ovarian) [µM] | TGI (OVCAR-8 ovarian) [µM] | TGI (MCF7 breast) [µM] | TGI (MALME-3M melanoma) [µM] |
| --- | --- | --- | --- | --- | --- | --- | --- | --- | --- | --- | --- | --- | --- | --- | --- | --- | --- | --- | --- |
| CN(C)/C=C/c1c2c(nc3ccccc13)C(=O)c1ccccc1C2=O | 5.51 | 0.882 | 8.45 | 6.31 | 4.85 | 0.294 | 5.47 | 3.36 | 9.83 | 0.206 | 0.739 | 4.21 | 4.26 | 4.71 | 4.88 | 11.7 | 7.71 |  |  |
| O=C1C=C2CC[C@H]3[C@@H]4CC[C@H](Oc5c6ccccc6nc6ccccc56)[C@H]4CC[C@@H]3[C@H]2CC1 | > 100 | > 100 | > 100 | > 100 | > 100 | > 100 | > 100 | 60.1 | 91.5 | > 100 | > 100 | > 100 | > 100 | > 100 | > 100 | > 100 | > 100 |  |  |
| CC(=O)OC1OC(c2ccoc2)C[C@@]12C1CCC3O[C@]3(C)[C@]1(C)C[C@H](OC(C)=O)[C@H]2C (stereo partly drawn) | > 75 | > 75 | > 75 | > 75 | > 75 | > 75 | > 75 | > 75 | > 75 | > 75 | > 75 | > 75 | > 75 | > 75 | > 75 | > 75 | > 75 | > 75 |  |
| COc1cccc(C=C2N=C(C)N(n3c(-c4ccccc4)nc4ccccc4c3=O)C2=O)c1 | > 100 | > 100 |  | > 100 | > 100 | > 100 | > 100 | > 100 |  | > 100 | > 100 | > 100 | > 100 | > 100 | > 100 | > 100 | > 100 | > 100 |  |
| CC1CC(C(=O)OC2OC(COC3OC(CO)C(OC4OC(C)C(O)C(O)C4O)C(O)C3O)C(O)C(O)C2O)C2CCC3(C)C(=CCC4(C)C3CCC3C(C)(CO)C(O)C(O)CC34C)C2C1C (stereo not drawn) | 51.5 | 33.3 | 66.7 | > 100 | 41.1 | 58.8 | > 10 | 52.2 |  | 34.5 | 32.7 | 35.5 | 34 | 33.2 | 32 | > 100 | 32.3 | 53 |  |
| Cc1ccc(NC(=O)/C(=N\NC(N)=O)c2c(O)c3ccccc3[nH]c2=O)cc1 | > 100 | > 100 | > 100 | > 100 | > 100 | > 100 |  | > 100 | > 100 | > 100 | > 100 | > 100 | > 100 |  | > 100 | > 100 | > 100 | > 100 |  |
| CC(=O)OC1[C@@H](OC(C)=O)CN(OCc2ccccc2)C[C@H]1OC(C)=O (stereo partly drawn) | > 100 | > 100 | > 100 | > 100 | > 100 | > 100 | > 100 | > 100 | > 100 | > 100 | > 100 | > 100 | > 100 | > 100 | > 100 | 76.4 | > 100 | > 100 |  |
| N#CCCN(CCC#N)c1ccc(C(N=Nc2ccc(Cl)cc2)=Nc2ccc(Cl)cc2)cc1 | 34.7 | 41.8 | 43.8 | 45.2 | 44.6 |  | 85.3 | 65.3 | 29.1 | 88.3 | 30.2 | 35.2 | 42 | 28.1 | 53.3 | > 100 | 31.4 | 24.7 |  |
| Cc1ccc([N+](=O)[O-])cc1S(=O)(=O)Nc1ccc(C2=NN(S(=O)(=O)c3cc([N+](=O)[O-])ccc3C)C(c3ccco3)C2)cc1 (stereo not drawn) | > 100 | > 100 | > 100 | > 100 | > 100 | > 100 | 94 | > 100 | > 100 | > 100 | > 100 | > 100 |  | > 100 | > 100 | > 100 | > 100 | > 100 | > 100 |
| Brc1ccc(-c2cc(-c3ccc4c(c3)OCO4)c(-c3cccs3)n2Cc2ccccc2)cc1 | > 100 |  |  | > 100 | > 100 |  | > 100 | > 100 | > 100 | > 100 | > 100 | > 100 | > 100 | > 100 | > 100 | > 100 | > 100 | > 100 |  |
| Cc1c(-c2ccc(O)c(O)c2)oc(=O)c2c(O)cccc12 | 23.4 | 22 | 33.5 | 36 |  |  | > 100 | > 100 | 36 | 12.3 |  | 23.9 |  | 20.1 | 36.1 | 40.9 | > 100 | 34.4 | 26.9 |
| O=S(=O)(O)c1ccccc1N=Nc1ccc(N=Nc2c(O)ccc3ccccc23)c(S(=O)(=O)O)c1 | > 100 | > 100 | > 100 | > 100 | > 100 |  | > 100 | > 100 | > 100 | > 100 | > 100 | > 100 | > 100 | > 100 | > 100 | > 100 | > 100 |  | > 100 |
| CCOC(=O)C1=C(C)NC(C)=C(C(=O)OCC)C1c1ccc(C)cc1 | 45.8 | > 100 | > 100 | > 100 | > 100 | > 100 | > 100 |  | 75.5 | > 100 | > 100 | > 100 | 84.3 | > 100 | > 100 | > 100 | > 100 | 47.3 |  |

Reference: PubChem BioAssay (NCI)
